Results published in patent US20100056516A1 (priority 2006, published 2010).

How the values were obtained:
HIV integrase = HIV integrase (Human immunodeficiency virus type 1 group M subtype B, UniProt P04585); experiment: integrase strand transfer assay (STA); assay type: biochemical; conditions: integrase strand transfer; read-out: IC50 in the STA assay
HXB2 virus = experiment: microbe, parasite or virus in culture; assay type: cell-based, HIV; conditions: Human immunodeficiency virus 1, HXB2, HeLaP4-2, read-out: antiviral IC50 (SCIA-B)
In short: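 HXB2 virus used to infect HeLa P4-2 cells in a single-cycle format; inhibition of acute infection is measured.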

Row | Structure (SMILES) | IC50 (HIV integrase) | IC50 (HXB2 virus)
1 | Nc1ccc(-c2ccc3c(c2)CN(c2cc(=O)n(O)c4ncccc24)CC3)cc1 [Example 254, 4-[7-(4-aminophenyl)-3,4-dihydroisoquinolin-2(1H)-yl]-1-hydroxy-1,8-naphthyridin-2(1H)-one] | < 50 µM | < 100 µM
2 | CCOC(=O)c1ccnc2c1c(O)cc(=O)n2O [Example 88, Ethyl 5,8-dihydroxy-7-oxo-7,8-dihydro-1,8-naphthyridine-4-carboxylate] | < 50 µM | < 100 µM
3 | CN1C(=O)c2c(c3cccnc3n(O)c2=O)NC1c1ccccc1 (centres unmarked) [Example 216, 6-Hydroxy-3-methyl-2-phenyl-2,3-dihydropyrimido[5,4-c]-1,8-naphthyridine-4,5(1H, 6H)-dione] | < 50 µM | < 100 µM
4 | O=c1cc(-c2ccncc2)c2cccnc2n1O [Example 203, 1-hydroxy-4-pyridin-4-yl-1,8-naphthyridin-2(1H)-one] | < 50 µM | < 100 µM
5 | O=c1cc(-c2ccc3ncccc3c2)c2cccnc2n1O [Example 184, 1-hydroxy-4-quinolin-6-yl-1,8-naphthyridin-2(1H)-one] | < 50 µM | < 100 µM
6 | O=c1cc(-c2ccccc2)c2cccnc2n1O [Example 171, 1-Hydroxy-4-phenyl-1,8-naphthyridin-2(H)-one] | < 50 µM | < 100 µM
7 | NS(=O)(=O)c1cccc(-c2cc(=O)n(O)c3ncccc23)c1 [Example 192, 3-(1-hydroxy-2-oxo-1,2-dihydro-1,8-naphthyridin-4-yl)benzenesulfonamide] | < 50 µM | < 100 µM
8 | CCOC(=O)c1c(-c2ccc(CCc3ccncc3)cc2)c2cccnc2n(O)c1=O [Example 262, Ethyl 4-[4-(2-pyridin-4-ylethyl)phenyl]-hydroxy-2-oxo-1,2-dihydro-1,8-naphthyridin-3-carboxylate] | < 50 µM | < 100 µM
9 | CC(NCc1cccc(Cl)c1)c1cnc2c(c1)c(O)c(-c1ccccc1)c(=O)n2O (centres unmarked) [Example 76, 6-{1-[(3-Chlorobenzyl)amino]ethyl}-1,4-dihydroxy-3-phenyl-1,8-napthyridin-2(1H)-one] | < 50 µM | < 100 µM
10 | Nc1cc(=O)n(O)c2ncccc12 [Example 99, 4-Amino-1-hydroxy-1,8-naphthyridin-2(1H)-one] | < 50 µM | < 100 µM
11 | CCOC(=O)c1c(O)c2cc(C(=O)N3CCCCC3CCc3ccccc3)cnc2n(O)c1=O (centres unmarked) [Example 82, Ethyl 1,4-dihydroxy-2-oxo-6-{[2-(2-phenylethyl)piperidin-1-yl]carbonyl}-1,2-dihydro-1,8-naphthyridine-3-carboxylate] | < 50 µM | < 100 µM
12 | O=c1c(Br)c(O)c2cc(-c3ccncc3)cnc2n1O [Example 72, 3-Bromo-1,4-dihydroxy-6-pyridin-4-yl-1,8-naphthyridin-2(1H)-one] | < 50 µM | < 100 µM
13 | CC(=O)c1cccc(-c2cccc(-c3cc(=O)n(O)c4ncccc34)c2)c1 [Example 191, 4-(3′-acetylbiphenyl-3-yl)-1-hydroxy-1,8-naphthyridin-2(1H)-one] | < 50 µM | < 100 µM
14 | COC(=O)CCc1cccc(-c2cccc(-c3cc(=O)n(O)c4ncccc34)c2)c1 [Example 187, methyl-3-[3′-(1-hydroxy-2-oxo-1,2-dihydro-1,8-naphthyridin-4-yl)biphenyl-3-yl]-propanoate] | < 50 µM | < 100 µM
15 | O=c1cc(N2CCCC(F)C2)c2cccnc2n1O (centres unmarked) [Example 118, 4-(3-fluoropiperidin-1-yl)-1-hydroxy-1,8-naphthyridin-2(1H)-one] | < 50 µM | < 100 µM
16 | O=C(NCc1ccccc1)c1c(O)c2cccnc2n(O)c1=O [Example 19, N-benzyl-1,4-dihydroxy-2-oxo-1,2-dihydro-1,8-naphthyridine-3-carboxamide] | < 50 µM | < 100 µM
17 | CN(C)C(=O)c1cccc(-c2cc(=O)n(O)c3ncccc23)c1 [Example 181, 3-(1-hydroxy-2-oxo-1,2-dihydro-1,8-naphthyridin-4-yl)-N,N-dimethylbenzamide] | < 50 µM | < 100 µM
18 | O=C(NCC1CCNC1)c1c(O)c2cccnc2n(O)c1=O (centres unmarked) [Example 25, 1,4-Dihydroxy-2-oxo-N-(pyrrolidin-3-ylmethyl)-1,2-dihydro-1,8-naphthyridine-3-carboxamide] | < 50 µM | < 100 µM
19 | Cc1ccc(CNc2cc(=O)n(O)c3ncccc23)cc1 [Example 143, 1-hydroxy-4-[(4-methylbenzyl)amino]-1,8-naphthyridin-2(1H-one)] | < 50 µM | < 100 µM
20 | O=c1cc(NCc2cnc(-c3ccccc3)[nH]2)c2cccnc2n1O [Example 167, 1-hydroxy-4-{[(2-phenyl-1-imidazole-5-yl)methyl]amino}-1,8-naphthyridin-2 (1H-one)] | < 50 µM | < 100 µM

Row | Structure (SMILES) | IC50 (HIV integrase) | IC50 (HXB2 virus)
21 | CCOC(=O)c1c(O)c2cc(-c3cccnc3)cnc2n(O)c1=O [Example 58, Ethyl 1,4-dihydroxy-2-oxo-6-pyridin-3-yl-1,2-dihydro-1,8-naphthyridine-3-carboxylate] | < 50 µM | < 100 µM
22 | CCOC(=O)CN1CCN(c2cc(=O)n(O)c3ncccc23)CC1 [Example 164, ethyl[4-(1-hydroxy-2-oxo-1,2-dihydro-1,8-naphthyridin-4-yl)-1-piperazinyl]acetate] | < 50 µM | < 100 µM
23 | CCOC(=O)c1c(O)c2cc(C(=O)N(C)Cc3ccccc3)cnc2n(O)c1=O [Example 80, Ethyl 6-{[benzyl(methyl)amino]carbonyl}-1,4-dihydroxy-2-oxo-1,2-dihydro-1,8-naphthyridine-3-carboxylate] | < 50 µM | < 100 µM
24 | O=C(NC1CC1)c1c(O)c2cccnc2n(O)c1=O [Example 6, N-Cyclopropyl-1,4-dihydroxy-2-oxo-1,2-dihydro-1,8-naphthyridine-3-carboxamide] | < 50 µM | < 100 µM
25 | NCc1cccc(-c2cnc3c(c2)c(O)c(-c2ccccc2)c(=O)n3O)c1 [Example 50, 6-[3-(Aminomethyl)phenyl]-1,4-dihydroxy-3-phenyl-1,8-naphthyridin-2(1H)-one] | < 50 µM | < 100 µM
26 | NCc1cccc(-c2cncc(-c3cc(=O)n(O)c4ncccc34)c2)c1 [Example 190, 4-{5-[3-(aminomethyl)phenyl]pyridin-3-yl}-1-hydroxy-1,8-naphthyridin-2(1H)one] | < 50 µM | < 100 µM
27 | CCOC(=O)c1c(O)c2cc(Cc3ccccc3)cnc2n(O)c1=O [Example 63, Ethyl 6-benzyl-1,4-dihydroxy-2-oxo-1,2-dihydro-1,8-naphthyridine-3-carboxylate] | < 50 µM | < 100 µM
28 | CC(C)(C)NC(=O)c1cccc(-c2cc(=O)n(O)c3ncccc23)c1 [Example 182] | < 50 µM | < 100 µM
29 | CNS(=O)(=O)c1cccc(-c2cc(=O)n(O)c3ncccc23)c1 [Example 193, 3-(1-hydroxy-2-oxo-1,2-dihydro-1,8-naphthyridin-4-yl)-N-methylbenzenesulfona-mide] | < 50 µM | < 100 µM
30 | CN1C(=O)c2c(c3cccnc3n(O)c2=O)NC1c1cccc(Oc2ccccc2)c1 (centres unmarked) [Example 218, 6-Hydroxy-3-methyl-2-(3-phenoxyphenyl)-2,3-dihydropyrimido[5,4-c]-1,8-naphthyridine-4,5(1H, 6H)dione] | < 50 µM | < 100 µM
31 | CC1CCN(Cc2cccc(CNc3cc(=O)n(O)c4ncccc34)c2)CC1 [Example 165, 1-hydroxy-4-({3-[(4-methyl-1-piperidinyl)methyl]benzyl}amino)-1,8-naphthyridin-2 (1H-one)] | < 50 µM | < 100 µM
32 | CCOC(=O)c1c(O)c2cc(Oc3ccc(N)cc3)cnc2n(O)c1=O [Example 89, Ethyl 6-(4-aminophenoxy)-1,4-dihydroxy-2-oxo-1,2-dihydro-1,8-naphthyridine-3-carboxylate] | < 50 µM | < 100 µM
33 | O=c1cc(NC2CCN(Cc3ccccc3)C2)c2cccnc2n1O (centres unmarked) [Example 112, 4-[(1-Benzylpyrrolidin-3-yl)amino]-1-hydroxy-1,8-naphthyridin-2(1H)-one] | < 50 µM | < 100 µM
34 | CNC(=O)c1ccc2c(=O)n(O)c3ncccc3c2c1 [Example 266, 5-Hydroxy-N-methyl-6-oxo-5,6-dihydrobenzo[c]-1,8-naphthyridine-9-carboxamide] | < 50 µM | < 100 µM
35 | CS(=O)(=O)Nc1cccc(-c2cccc(-c3cc(=O)n(O)c4ncccc34)c2)c1 [Example 177, N-[3′-(1-hydroxy-2-oxo-1,2-dihydro-1,8-naphthyridin-4-yl)biphenyl-3-yl]methanesulfonamide] | < 50 µM | < 100 µM
36 | COc1ccc(-c2c(O)c3cccnc3n(O)c2=O)cc1 [Example 31, 1,4-Dihydroxy-3-(4-methoxyphenyl)-1,8-naphthyridin-2(1H)-one] | < 50 µM | < 100 µM
37 | NCc1ccc(-c2cccc(Cc3cc(=O)n(O)c4ncccc34)c2)cc1 [Example 232, 4-{[4′-(aminomethyl)biphenyl-3-yl]methyl}-1-hydroxy-1,8-naphthyridin-2(1H)-one] | < 50 µM | < 100 µM
38 | O=c1c2cc(-c3ccccc3)ccc2c2cccnc2n1O [Example 268, 5-Hydroxy-8-phenylbenzo[c]-1,8-naphthyridin-6(5H)-one] | < 50 µM | < 100 µM
39 | O=C(NCCc1ccccc1)c1ccc2c(c1)CN(c1cc(=O)n(O)c3ncccc13)CC2 [Example 260, 4-[7-(phenylethylaminocarbonyl)-3,4-dihydroisoquinolin-2(1H)-yl]-1-hydroxy-1,8-naphthyridin-2(1H)-one] | < 50 µM | < 100 µM
40 | CCOC(=O)c1c(N[C@@H](CO)c2ccccc2)c2cccnc2n(O)c1=O [Example 129, Ethyl 1-hydroxy-4-{[(1R)-2-hydroxy-1-phenylethyl]amino}-2-oxo-1,2-dihydro-1,8-naphthyridine-3-carboxylate] | < 50 µM | < 100 µM
